Assay results from patent publication US11505556B2, “Halogenated derivatives of morphinans and uses thereof” (Xalud Therapeutics, Inc., priority 2017, dated 2022).
Where two headings read alike, the source gives them in different places.

Columns and labels:
Human hepatocytes = experiment: Hepatocyte elimination of parent compound; conditions: cultured hepatocytes
[1] = system: TLR4 (LPS-stimulated NO production, BV-2 mouse microglia cell line); experiment: NO assay: inhibition of LPS-induced NO production in BV-2 microglia (iNOS cellular); assay type: cell-based; conditions: Mus musculus
Source text: NO assay: Microglia are the resident cells of the innate immune system in the central nervous system, and TLR4 is primarily expressed by microglia rather than astrocytes or neurons in the CNS. Given this expression profile, the BV-2 mouse microglia cell line was used as the model system of microglia, as these cells recapitulate many of the responses of primary microglia with high fidelity. TLR4 activation induces the downstream production of the inflammatory factor NO, which contributes to the development of neuropathic pain and drug addiction. BV-2 murine microglia were grown in supplemented DMEM (including 10% FBS, 50 unit mL^−1 penicillin, 50 μg·mL^−1 streptomycin). BV-2 cells were detached from the flask by trypsin digestion when ˜80% confluence was reached. Cells were seeded at a density of 4×10^4 cells per well in 96-well plates. After overnight incubation, media was aspirated and changed to DMEM media without FBS. Cells were then treated with LPS (200 ng/ml) and different concentrations of the testing compounds. After 24 h treatment, 100 μL of supernatant media was removed after cells were treated for 24 h and added to flat black 96-well microfluor plates (Thermo Scientific, MA, USA). Subsequently, 10 μL of 2, 3-diaminonaphthalene (0.05 mg·mL^−1 in 0.62 M HCl) was added to each well and incubated for 15 min. The reaction was quenched by addition of 5 μL of 3 M NaOH and the plate was read on a Beckman Coulter DTX880 reader (Fullerton, Calif., USA) with excitation at 360 nm and emission at 430 nm.
N chain NTX: This experimentation involved an in vitro assay where mouse BV2 cells were treated with LPS, which results in the release of nitric oxide (NO). Blockade of TLR4 activity results in reduced NO production. Therefore, IC50 values were determined for test compounds that antagonize TLR4 activity. A series of test compounds were prepared, with different N-alkyl chains replacing the cyclopropyl methyl found in naltrexone. Cell viability was also measured by a standard assay, e.g., measurement of the release of cytoplasm-resident enzymes in the tissue culture supernatant or media to detect cell loss/lysis/rupture. A dose-inhibition curve was generated by testing the TLR4 antagonist compound for the ability to block LPS-stimulated iNOs induction. In FIG. 7, the inhibition levels across a range of doses are graphed, along with a regression curve. The IC50 value—50% inhibition level—is also provided, graphed against the length of the alkyl chain. Note that with longer N-alkyl chain the IC50 was reduced, although cell viability became problematic.
FIGS. 8B to 8D show the results of the inhibition of NO production from LPS-stimulated BV2 cells using the assay described above.

hERG = hERG (Homo sapiens, UniProt Q12809); experiment: hERG inhibition
in vitro [2] = conditions: mouse, hepatocytes
in vitro [3] = conditions: human, cultured hepatocytes
in vitro [4] = conditions: rat, cultured hepatocytes
in vitro [5] = conditions: monkey, cultured hepatocytes
in vitro [6] = conditions: dog, cultured hepatocytes
[7] = system: off-target screening panel; experiment: Off-target inhibition screening (whole panel); conditions: 10 μM test concentration; hit = inhibition at or above the 50% level
Source text: (§1) In addition to the animal studies presented above in Examples 1-9, the results of in vitro testing of several of the compounds (i.e., XT-203, XT-204, and XT-206 through XT-217) are shown in Table 5 and Table 6. […]. Nine additional compounds had two or fewer off-target hits in the screening. […] These compounds spanned all of the tested N-modification classes. […]. Thus, the medicinal chemistry approach taken in this series of fluorinated compounds can yield low off-target activity and longer metabolic lifetime while preserving TLR4 antagonism. It is appreciated that further development of compounds in this class, using techniques known to those skilled in the art, may yield additional compounds with desirable pharmacologic and toxicologic characteristics.

Adrenergic α2A = target: T1, Adrenergic α2A (Homo sapiens, UniProt P08913); experiment: Off-target screening; assay type: binding; conditions: 10 μM
T1 sequence (P08913 1-465): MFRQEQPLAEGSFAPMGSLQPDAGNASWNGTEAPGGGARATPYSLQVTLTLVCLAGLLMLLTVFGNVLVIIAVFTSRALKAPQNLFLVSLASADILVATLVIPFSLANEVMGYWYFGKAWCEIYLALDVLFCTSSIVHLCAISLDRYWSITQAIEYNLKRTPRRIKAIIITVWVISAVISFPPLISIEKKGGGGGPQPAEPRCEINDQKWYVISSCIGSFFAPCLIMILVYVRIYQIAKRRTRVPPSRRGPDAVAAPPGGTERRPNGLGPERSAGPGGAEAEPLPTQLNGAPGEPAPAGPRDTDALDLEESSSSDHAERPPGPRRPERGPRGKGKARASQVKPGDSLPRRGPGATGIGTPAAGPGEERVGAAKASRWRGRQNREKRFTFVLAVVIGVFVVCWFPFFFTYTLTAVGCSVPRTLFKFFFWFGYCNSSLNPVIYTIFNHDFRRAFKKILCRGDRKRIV
Source text: as §1

[8] = system: bone fracture pain, paw withdrawal threshold; experiment: Mouse bone fracture model, intraperitoneal; assay type: in vivo
Source text: Each group had n=10 mice.

[9] = system: surgical pain (paw incision), paw withdrawal threshold; experiment: Mouse paw incision model, morphine potentiation
Experimental: Manual testing with von Frey hairs was performed at the times indicated in the graphs. The animals were placed in individual Perspex boxes on a raised metal mesh for at least 40 min before the test. A series of graduated von Frey hairs (0.07, 0.16, 0.4, 0.6, and 1.0 g) were applied to the plantar surface of the left paw, in sequence. Each von Frey hair was applied 10 times on a one-sec-on-one-sec-off protocol, with each hair slightly bent. A paw withdrawal upon this hind-paw stimulation for a given von Frey hair registering 5 responses out of 10 trials was recorded the paw withdrawal threshold (PWT). A baseline PWT was determined each day for 3 days before surgery. […] In addition, the PWT was determined before dosing and 1, 2, and 4 hours after dosing.
In both cases, morphine was dosed at 1 mg/kg IP.

[10] = system: CCI neuropathic pain (mechanical allodynia); experiment: Rat CCI model, oral and subcutaneous phases (Study R042); assay type: in vivo; conditions: gabapentin 200 mg/kg
Experimental: Rat chronic constriction injury model-Oral and subcutaneous (+)-NTX and XT-203: An efficacy study was conducted in the rat chronic constriction injury (CCI) model (Study R042). The study design comprised two phases. A five-day period of oral (PO) dosing and behavioral testing was followed by a five-day period of subcutaneous (SC) dosing, with a two-day washout period between these periods. Dosing on each day was performed three times a day (TID). Behavioral testing for mechanical allodynia was performed on the first and fifth days of dosing, at three times on those days: before the first dose of the day, 30 minutes after the first dose of the day, and 30 minutes after the second dose of the day. Thus, day 5 testing is designated as pre5.1 (before the first dose of the day), 5.1 (fifth day, after first dose) or 5.2 (fifth day, after second dose). On day 5 of the subcutaneous dosing phase, a second testing period was introduced 60 minutes after the second dose. (+)-NTX (6, 18, and 60 mg/kg) and XT-203. Mechanical allodynia was tested manually, using the Chaplan up-down testing method. The results are shown in FIGS. 10A and 10B, with the oral (PO) phase presented as the first pair of graphs. After the two-day washout, the subcutaneous (SC) phase was carried out with the results shown in the graphs at FIGS. 10C and 10D.
The CCI model was well established in this study, with allodynic response thresholds between 2 and 3 grams (presurgical baseline thresholds at 15 g, not shown). […] This is especially remarkable given the extremely rapid metabolism and pharmacokinetics of (+)-NTX (see FIG. 9). Here, the dampening of efficacy due to lack of significant amounts of parent compound is particularly evident. Thus, the appropriate dose-ranging conditions in animal models should reflect (+)-NTX serum levels during efficacy testing, to match pharmacokinetics with pharmacodynamics. […] Efficacy is only observed after the first dose on day 5. Thus, changes designed to improve compound stability do provide improved efficacy.

iNOS = iNOS (Homo sapiens, UniProt P35228); experiment: iNOS enzyme inhibition; assay type: biochemical
Cannabinoid CB1 = Cannabinoid CB1 (Homo sapiens, UniProt P21554); experiment: Off-target screening; assay type: binding
Source text: as §1

Adenosine A2A = Adenosine A2A (Homo sapiens, UniProt P29274); experiment: Off-target screening; assay type: binding
Source text: as §1

[11] = Hepatocyte elimination of parent compound, spread across species; assay type: in vitro ADME; conditions: mouse, rat, dog, monkey, human, hepatocytes; lowest to highest species value; read-out: range of hepatocyte elimination half-life values across species
Experimental: Hepatocyte Elimination: (+)-NTX, AK-17 and XT-203 were incubated with cultured hepatocytes from the species listed in FIG. 9 and Table 4, and samples of the culture supernatant were collected over time. Samples were concentrated by nitrogen drying followed by reconstitution with 40% methanol for LC/MS analysis The data points were analyzed using the WinNonLin pharmacokinetics software package, and a half-life was determined that describes the rate of parent elimination. […].
as §1

[12] = Microglia, Table 6, unit inferred, footnote: Indicator of TL4 antagonism
[13] = LPS (200 ng/ml), 24 h, BV-2 cells, Table 3
[14] = read-out: iNOS enzyme, Table 6, unit inferred

Sequence of iNOS (P35228 whole entry): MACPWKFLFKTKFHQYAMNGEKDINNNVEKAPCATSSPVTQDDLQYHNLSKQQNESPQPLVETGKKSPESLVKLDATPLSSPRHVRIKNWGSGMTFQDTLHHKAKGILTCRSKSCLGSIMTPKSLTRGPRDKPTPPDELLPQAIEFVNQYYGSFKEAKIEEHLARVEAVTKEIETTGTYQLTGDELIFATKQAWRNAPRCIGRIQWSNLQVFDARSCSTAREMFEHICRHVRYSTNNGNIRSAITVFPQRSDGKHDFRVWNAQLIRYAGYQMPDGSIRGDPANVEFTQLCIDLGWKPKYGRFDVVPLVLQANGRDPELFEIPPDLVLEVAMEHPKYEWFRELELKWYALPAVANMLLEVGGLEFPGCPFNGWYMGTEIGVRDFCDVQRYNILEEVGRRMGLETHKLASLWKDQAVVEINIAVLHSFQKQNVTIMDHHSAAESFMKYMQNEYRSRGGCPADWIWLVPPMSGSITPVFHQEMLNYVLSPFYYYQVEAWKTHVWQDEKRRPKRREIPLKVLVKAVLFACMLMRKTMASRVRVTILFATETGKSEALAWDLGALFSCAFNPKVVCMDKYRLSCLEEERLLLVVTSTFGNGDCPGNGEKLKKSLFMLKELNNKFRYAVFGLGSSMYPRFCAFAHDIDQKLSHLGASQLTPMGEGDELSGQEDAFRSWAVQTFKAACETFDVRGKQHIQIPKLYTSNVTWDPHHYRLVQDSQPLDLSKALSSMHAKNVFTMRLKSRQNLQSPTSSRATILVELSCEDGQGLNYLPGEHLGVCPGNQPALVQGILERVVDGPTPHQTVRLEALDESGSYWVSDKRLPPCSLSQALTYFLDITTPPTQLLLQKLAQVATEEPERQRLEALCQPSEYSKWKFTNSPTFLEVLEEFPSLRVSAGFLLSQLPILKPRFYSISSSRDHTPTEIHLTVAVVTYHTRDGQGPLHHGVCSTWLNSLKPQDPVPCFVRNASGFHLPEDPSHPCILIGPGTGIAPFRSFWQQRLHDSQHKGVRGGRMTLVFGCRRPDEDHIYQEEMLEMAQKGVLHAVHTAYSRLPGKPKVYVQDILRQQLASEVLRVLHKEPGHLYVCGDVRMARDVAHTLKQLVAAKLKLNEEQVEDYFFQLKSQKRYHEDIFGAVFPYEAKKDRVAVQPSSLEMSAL
Sequence of hERG (Q12809 whole entry): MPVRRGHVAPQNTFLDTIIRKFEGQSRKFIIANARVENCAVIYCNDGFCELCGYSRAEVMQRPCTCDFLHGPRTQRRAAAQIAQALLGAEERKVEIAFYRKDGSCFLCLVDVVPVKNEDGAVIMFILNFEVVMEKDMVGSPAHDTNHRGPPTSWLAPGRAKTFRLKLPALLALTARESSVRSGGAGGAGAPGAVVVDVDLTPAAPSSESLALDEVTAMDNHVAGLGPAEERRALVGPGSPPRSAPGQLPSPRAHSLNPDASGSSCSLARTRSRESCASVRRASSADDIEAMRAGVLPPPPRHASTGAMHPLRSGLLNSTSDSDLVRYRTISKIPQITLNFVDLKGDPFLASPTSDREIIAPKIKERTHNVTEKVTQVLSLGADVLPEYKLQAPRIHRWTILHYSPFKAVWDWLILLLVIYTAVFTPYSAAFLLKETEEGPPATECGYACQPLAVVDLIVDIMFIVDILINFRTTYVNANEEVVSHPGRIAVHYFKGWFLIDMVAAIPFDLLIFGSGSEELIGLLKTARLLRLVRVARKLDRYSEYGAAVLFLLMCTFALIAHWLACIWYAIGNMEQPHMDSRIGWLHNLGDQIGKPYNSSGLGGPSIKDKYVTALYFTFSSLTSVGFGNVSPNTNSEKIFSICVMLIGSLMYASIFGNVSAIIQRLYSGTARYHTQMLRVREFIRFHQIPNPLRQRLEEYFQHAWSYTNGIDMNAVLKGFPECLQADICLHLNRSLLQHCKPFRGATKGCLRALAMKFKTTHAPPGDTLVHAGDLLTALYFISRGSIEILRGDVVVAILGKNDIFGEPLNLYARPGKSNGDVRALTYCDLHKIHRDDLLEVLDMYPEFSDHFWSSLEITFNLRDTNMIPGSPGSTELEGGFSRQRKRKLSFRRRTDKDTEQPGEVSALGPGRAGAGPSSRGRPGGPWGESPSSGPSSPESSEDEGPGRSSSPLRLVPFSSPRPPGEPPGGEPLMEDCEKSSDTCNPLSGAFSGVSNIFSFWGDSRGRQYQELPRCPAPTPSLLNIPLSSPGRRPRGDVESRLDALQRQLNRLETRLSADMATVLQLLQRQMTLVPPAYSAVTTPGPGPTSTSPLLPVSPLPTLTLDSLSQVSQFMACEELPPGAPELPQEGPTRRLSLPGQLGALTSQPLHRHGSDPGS
Sequence of Cannabinoid CB1 (P21554 whole entry): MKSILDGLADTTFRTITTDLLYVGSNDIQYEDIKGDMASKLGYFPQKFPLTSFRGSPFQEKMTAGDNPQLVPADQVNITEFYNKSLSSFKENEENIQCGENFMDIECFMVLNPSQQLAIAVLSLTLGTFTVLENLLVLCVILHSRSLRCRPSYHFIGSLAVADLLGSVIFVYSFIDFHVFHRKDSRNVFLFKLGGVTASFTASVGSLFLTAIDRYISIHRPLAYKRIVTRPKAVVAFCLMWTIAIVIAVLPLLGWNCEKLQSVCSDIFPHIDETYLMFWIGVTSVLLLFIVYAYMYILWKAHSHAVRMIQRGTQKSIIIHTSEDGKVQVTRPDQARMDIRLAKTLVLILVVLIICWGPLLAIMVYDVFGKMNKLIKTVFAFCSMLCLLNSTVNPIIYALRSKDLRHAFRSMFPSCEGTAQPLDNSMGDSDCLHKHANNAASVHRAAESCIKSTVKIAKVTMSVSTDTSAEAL
Sequence of Adenosine A2A (P29274 whole entry): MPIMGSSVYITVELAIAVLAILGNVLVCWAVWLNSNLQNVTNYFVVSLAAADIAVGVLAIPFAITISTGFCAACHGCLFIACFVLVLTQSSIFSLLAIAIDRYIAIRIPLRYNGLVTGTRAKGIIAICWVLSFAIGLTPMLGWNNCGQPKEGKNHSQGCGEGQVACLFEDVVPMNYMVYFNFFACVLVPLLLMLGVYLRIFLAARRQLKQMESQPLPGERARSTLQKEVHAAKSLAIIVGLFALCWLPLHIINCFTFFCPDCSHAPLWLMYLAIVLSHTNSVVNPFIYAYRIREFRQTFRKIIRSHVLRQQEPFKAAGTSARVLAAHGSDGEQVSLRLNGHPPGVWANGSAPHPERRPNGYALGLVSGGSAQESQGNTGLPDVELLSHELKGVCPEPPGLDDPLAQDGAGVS

| SMILES | IC50 [1, 12] [µM] | IC50 [1, 13] [µM] | IC50 (hERG) [µM] | half-life (in vitro [2]) [min] | half-life (in vitro [3]) [min] | half-life (in vitro [4]) [min] | half-life (in vitro [5]) [min] | half-life (in vitro [6]) [min] | off-target hits in the screening [7] | other results |
| --- | --- | --- | --- | --- | --- | --- | --- | --- | --- | --- |
| COc1ccc2c3c1O[C@@H]1C(F)CCC4[C@H](C2)N(S(=O)(=O)C2CC2)CC[C@]341 (stereo partly drawn) [XT-212] | > 10 | > 10 | > 10 | 19.8 | 61.2 | 14.4 | 21.2 | 86.4 | no off-target hits and none | parent duration in human hepatocytes relative to XT-203 (Human hepatocytes): longer parent duration than XT-203 |
| COc1ccc2c3c1O[C@@H]1C(F)CCC4[C@H](C2)N(C2CC2)CC[C@]341 (stereo partly drawn) [XT-214] | > 10 | > 10 | > 10 | 18.7 | 52.9 | 11.8 | 14.1 | 37.7 | one off-target hit | inhibition at 10 µM (Adrenergic α2A): 51% |
| CN1CC[C@]23c4c5ccc(O)c4O[C@H]2[C@@H](O)C=C[C@H]3[C@H]1C5 [Morphine, morphine] |  |  |  |  |  |  |  |  |  | effect on PWT in mouse fracture pain model ([8]; IP, morphine 1, 2, 3, 5 mg/kg, XT-203 6, 10, 18, 30 mg/kg, (+)-NTX 6, 18, 30, 60 mg/kg, dose-dependent): increased the PWT; behaviour observed at 5 mg/kg ([8]; mouse fracture model, 5 mg/kg IP, 1 hour after dosing, gone from two hours onward): some mice showing walking anti-clockwise; PWT, 2 hours after dosing ([9]; morphine 1 mg/kg IP alone): 0.11 ± 0.033 g; PWT, 4 hours after dosing ([9]; morphine 1 mg/kg IP alone): 0.10 ± 0.014 g; PWT, 1 hour after dosing ([9]; morphine 1 mg/kg IP alone, baseline 0.11±0.015 g): 0.20 ± 0.046 g; adverse effects during observation ([9]; morphine dose groups): No significant adverse effects |
| NCC1(CC(=O)O)CCCCC1 [gabapentin, reference compound] |  |  |  |  |  |  |  |  |  | reversal of mechanical allodynia, positive control [10]: reversals of allodynia |
| COc1ccc2c3c1O[C@@H]1C(F)CCC4[C@H](C2)N(C(=O)c2ccccc2)CC[C@]341 (stereo partly drawn) [XT-207] | > 10 | > 10 | > 10 | 22.4 | 37.4 | 11.6 | 12.4 | 39.8 | no off-target hits and none | IC50 (iNOS): > 10 µM; IC50 (iNOS; [14]): > 10 µM |
| COc1ccc2c3c1O[C@@H]1C(F)CCC4[C@H](C2)N(S(=O)(=O)Cc2ccccc2)CC[C@]341 (stereo partly drawn) [XT-217] | > 10 | > 10 | > 10 | 12.6 | 14.1 | 10.2 | 9.2 | 9.7 | two off-target hits | inhibition at 10 µM (Cannabinoid CB1): 56%; inhibition at 10 µM (Adenosine A2A): 61%; half-life [11]: 9.2 to 14.1 min |
| COc1ccc2c3c1O[C@@H]1C(F)CCC4[C@H](C2)N(C(=O)Cc2ccccc2)CC[C@]341 (stereo partly drawn) [XT-211] | > 10 | > 10 | > 10 | 19 | 32.5 | 11.9 | 12.9 | 19.1 | no off-target hits and none |  |
| COc1ccc2c3c1O[C@@H]1C(F)CCC4[C@H](C2)N(C(=O)C2CC2)CC[C@]341 (stereo partly drawn) [XT-206] | > 10 | > 10 | > 10 | 18.3 | 120 | 14.4 | 15.5 | 80.8 | no off-target hits and none | parent duration in human hepatocytes relative to XT-203 (Human hepatocytes): longer parent duration than XT-203; IC50 (iNOS): > 10 µM; IC50 (iNOS; [14]): > 10 µM; half-life [11]: 14.4 to 120 min |
